Results from patent US4891450A, “Process for intermediates for insecticidal compounds” (Imperial Chemical Industries PLC, priority 1987, dated 1990).

Tests used:
Assay type in all cases: in vivo
Myzus persicae (aphids) = assay: Contact test, mortality of Myzus persicae on Chinese Cabbage leaf (MP); details: 72 h, 3 days, read-out: grading of mortality, MP
Method: (§1) The activity of the Product was determined using a variety of insect pests The Product was used in the form of liquid preparations containing from 100 to 500 parts per million (ppm) by weight of the Product. The preparations were made by dissolving the Product in acetone and diluting the solutions with water containing 0.1% by weight of a wetting agent sold under the trade name "SYNPERONIC" NX until the liquid preparations contained the required concentration of the Product "SYNPERONIC" is a Registered Trade Mark.
(§2) The test procedure adopted with regard to each pest was basically the same and comprised supporting a number of the pests on a medium which was usually a host plant or a foodstuff on which the pests feed, and treating either or both the pests and the medium with the preparations. The mortality of the pests was then assessed at periods usually varying from one to seven days after the treatment.
(§3) The results of the tests are given in Table III for each of the Products, at the rate in parts per million given in the second column as a grading of mortality designated as A, B or C wherein A indicates 80-100% mortality or knockdown, B indicates 50-79% mortality knockdown or knockdown and C indicates less than 50% mortality or knockdown.
(§4) In Table III the pest organism used is designated by a letter code and the pests species, the support medium or food, and the type and duration of test is given in Table II.

[1] = tested on: Diabrotica balteata (rootworm larvae); assay: Residual test, mortality of Diabrotica balteata larvae, Filter paper/maize seed (DB); details: 72 h, 3 days, read-out: grading of mortality, DB
Method: as §1, §2, §3, §4

[2] = tested on: Spodoptera exigua (lesser army worm - larvae); assay: Residual test, mortality of Spodoptera exigua larvae on Cotton leaf (SP); details: 72 h, 3 days, read-out: grading of mortality, SP
Method: as §1, §2, §3, §4
(lesser army worm - larvae)

[3] = tested on: Nilaparvata lugens (brown plant hopper - nymphs); assay: Contact test, mortality of Nilaparvata lugens nymphs on Rice plant (NL); details: 72 h, 3 days, read-out: grading of mortality, NL
Method: as §1, §2, §3, §4

[4] = tested on: Tetranychus urticae (spider mites - adult); assay: Contact test, mortality of Tetranychus urticae adults on French bean leaf (TUa); details: 72 h, 3 days, read-out: grading of mortality, TuA
Method: as §1, §2, §3, §4

[5] = tested on: Heliothis virescens (tobacco budworm - larvae); assay: whole plant or invertebrate; details: in Gossypium hirsutum, 72 h, read-out: grading of mortality, HV
Method: as §1, §2, §3, §4
(tobacco budworm - larvae)

[6] = tested on: Musca domestica (houseflies - adults); assay: Contact test, mortality of Musca domestica adults (MD); details: 24 h, 1 day, read-out: grading of mortality, MD
Method: as §1, §2, §3, §4

[7] = tested on: Blattela germanica (cockroach nymphs); assay: Residual test, mortality of Blattela germanica nymphs (BG); details: 3 days
Method: as §1, §2, §3, §4

[8] = tested on: Tetranychus urticae (spider mites - ova); assay: Contact test, mortality of Tetranychus urticae ova on French bean leaf (TUe); details: 144 h, 6 days, read-out: grading of mortality, TuE
Method: as §1, §2, §3, §4

| Structure (SMILES) | mortality at 500 ppm (Myzus persicae (aphids)) | mortality at 500 ppm [1] | mortality at 500 ppm [2] | mortality at 500 ppm [3] | mortality at 500 ppm [4] | mortality at 500 ppm [5] | mortality at 500 ppm [6] | grading of mortality, BG ([7]; 500 ppm) | mortality at 500 ppm [8] | mortality at 250 ppm (Myzus persicae (aphids); 250 ppm) | mortality at 250 ppm ([1]; 250 ppm) | mortality at 250 ppm ([3]; 250 ppm) | mortality at 250 ppm ([4]; 250 ppm) | mortality at 250 ppm [5] | mortality at 250 ppm ([6]; 250 ppm) | grading of mortality, BG ([7]; 250 ppm) |
| --- | --- | --- | --- | --- | --- | --- | --- | --- | --- | --- | --- | --- | --- | --- | --- | --- |
| Fc1ccc(COCC(c2ccc(OC(F)(F)F)cc2)C(F)(F)F)cc1Oc1ccc(Cl)cc1 (racemic) [Compound 29, (RS)-1,1,1-Trifluoro-2-(4-trifluoromethoxyphenyl)-3-[3-(4-chlorophenoxy)-4-fluorobenzyloxy]propane] | 80 to 100% | 80 to 100% | 80 to 100% | 80 to 100% | 80 to 100% | 80 to 100% | 80 to 100% | A (80-100% mortality or knockdown) | 80 to 100% | – | – | – | – | – | – | – |
| CCOc1ccc(C(COCc2cccc(Oc3ccc(Cl)cc3)c2)C(F)(F)F)cc1 (racemic) [Compound 3, (RS)-1,1,1-trifluoro-2-(4-ethoxyphenyl)-3-[3-(4-chlorophenoxy)benzyloxy]propane] | – | – | – | – | – | – | – | – | – | 80 to 100% | 80 to 100% | 80 to 100% | < 50% | < 50% | 80 to 100% | A (80-100% mortality or knockdown) |
| Fc1ccc(COCC(c2ccc(C(F)(F)F)cc2)C(F)(F)F)cc1Oc1ccccc1 (racemic) [Compound 38, (RS)-1,1,1-Trifluoro-2-(4-trifluoromethylphenyl)-3-(3-phenoxy-4-fluorobenzyloxy) propane] | 80 to 100% | 80 to 100% | 80 to 100% | 80 to 100% | 80 to 100% | 80 to 100% | 80 to 100% | A (80-100% mortality or knockdown) | 80 to 100% | – | – | – | – | – | – | – |
| CCOc1ccc(C(COCc2ccc(F)c(Oc3ccc(Cl)cc3)c2)C(F)(F)F)cc1 (racemic) [Compound 5, (RS)-1,1,1-trifluoro-2-(4-ethoxyphenyl)-3-[3-(4-chlorophenoxy)-4-fluorobenzyloxy]propane] | 80 to 100% | 80 to 100% | – | 80 to 100% | 50 to 79% | 80 to 100% | 80 to 100% | A (80-100% mortality or knockdown) | – | – | – | – | – | – | – | – |
| FC(F)(F)c1ccc(C(COCc2cccc(Oc3ccccc3)c2)C(F)(F)F)cc1 (racemic) [Compound 39, (RS)-1,1,1-Trifluoro-2-(4-trifluoromethylphenyl)-3-(3-phenoxybenzyloxy)propane] | 80 to 100% | 80 to 100% | 80 to 100% | 80 to 100% | < 50% | 80 to 100% | 80 to 100% | A (80-100% mortality or knockdown) | 80 to 100% | – | – | – | – | – | – | – |
